From US7314937B2, “Non-imidazole aryl alkylamines compounds as histamine H3 receptor antagonists, preparation and therapeutic uses” (Eli Lilly and Company, priority 2002, dated 2008)
Like-named read-outs stand apart in the source and are kept apart here.

Experiments:
[1] = molecular target: T1, H3R membranes (H3R8-expressing HEK293 cell line) (Homo sapiens, UniProt Q9Y5N1); assay: [35S]GTPγS binding assay (antagonist inhibition of agonist-stimulated binding); type: biochemical; details: inhibition of [35S]GTPγS binding to H3R membranes in presence of agonist R(-) alpha methylhistamine
T1 construct: expressed in transfected cells; membranes
T1 sequence (Q9Y5N1 whole entry): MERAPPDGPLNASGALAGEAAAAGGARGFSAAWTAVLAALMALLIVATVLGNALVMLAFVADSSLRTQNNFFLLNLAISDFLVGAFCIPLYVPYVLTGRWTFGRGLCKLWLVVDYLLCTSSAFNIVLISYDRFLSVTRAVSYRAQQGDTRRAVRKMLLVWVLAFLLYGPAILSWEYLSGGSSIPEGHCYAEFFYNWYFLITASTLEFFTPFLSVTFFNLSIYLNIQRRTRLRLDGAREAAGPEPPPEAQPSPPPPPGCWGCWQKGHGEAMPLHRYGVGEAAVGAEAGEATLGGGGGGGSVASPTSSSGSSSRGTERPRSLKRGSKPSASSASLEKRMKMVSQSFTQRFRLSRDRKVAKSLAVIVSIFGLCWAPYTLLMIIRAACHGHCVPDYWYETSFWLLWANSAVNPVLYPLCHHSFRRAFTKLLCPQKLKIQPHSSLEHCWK
Description: Membranes isolated as described in Example 3 were used in a [^35S]GTPχS functional assay. Binding of [^35S]GTPχS to membranes indicates agonist activity. Compounds of the invention of Formula I were tested for their ability to inhibit binding in the presence of agonists. Alternately, the same transfected cell lines were used for a cAMP assay wherein H3R agonists inhibited forskolin-activated synthesis of cAMP. Compounds of Formula I were tested for their ability to permit forskolin-stimulated cAMP synthesis in the presence of agonist.
cDNA for the human histamine 3 receptor was cloned and expressed as described in Example 1, above. Transfected cells were selected using G418 (500 μ/ml), grown, and tested for histamine binding by the SPA described above. For total binding, cells were assayed in a SPA reaction described above containing 50 mM Tris-HCL (assay buffer), pH 7.6, 1 mg wheat germ agglutinin SPA beads (Amersham Pharmacia Biotech, #RPNQ0001), and 1 nM (^3H)-n-alpha-methylhistamine (NEN, NET1027) (total volume per well=200 μl). Thioperimide was added to determine non-specific binding. […]
Antagonist activity of selected compounds was tested for inhibition of [^35S] […] Plates were counted in Wallac Trilux 1450 Microbeta scintillation counter for 1 minute. […]

[2] = molecular target: T2, human histamine 3 receptor (H3R) (Homo sapiens, UniProt Q9Y5N1); assay: Competitive inhibition SPA radioligand binding assay, H3R
T2 construct: expressed in transfected cells; membranes
T2 sequence (Q9Y5N1 whole entry): as above
Source text: The inventive compounds can readily be evaluated by using a competitive inhibition Scintillation Proximity Assay (SPA) based on a H3R binding assay using [3H] a methylhistamine as ligand. Stable cell lines, including but not limited to HEK can be transfected with cDNA coding for H3R to prepare membranes used for the binding assay. The technique is illustrated below (Example 3) for the histamine receptor subtypes.
C. Preparation of H3R Membranes
cDNA for the human histamine 3 receptor was cloned and expressed as described in Example 1, above. Transfected cells were selected using G418 ([…]), grown, and tested for histamine binding by the SPA described above. For total binding, cells were assayed in a SPA reaction described above containing 50 mM Tris-HCL (assay buffer), pH 7.6, 1 mg wheat germ agglutinin SPA beads (Amersham Pharmacia Biotech, #RPNQ0001), and 1 nM (^3H)-n-alpha-methylhistamine (NEN, NET1027) (total volume per well=200 μl). Thioperimide was added to determine non-specific binding. Several clones were selected as positive for binding, and a single clone (H3R8) was used to prepare membranes for binding studies described above. Five micrograms of protein was used per well in the SPA receptor-binding assay.
To investigate the selectivity of the antagonists for the histamine receptors, a competitive binding assay described above was performed. […]

[3] = molecular target: T3, human histamine 1 receptor (H1R) (Homo sapiens, UniProt P35367); assay: Competitive SPA binding assay, H1R, 3H-pyrilamine; details: selectivity study Table 2
T3 construct: expressed in transfected cells; membranes
T3 sequence (P35367 whole entry): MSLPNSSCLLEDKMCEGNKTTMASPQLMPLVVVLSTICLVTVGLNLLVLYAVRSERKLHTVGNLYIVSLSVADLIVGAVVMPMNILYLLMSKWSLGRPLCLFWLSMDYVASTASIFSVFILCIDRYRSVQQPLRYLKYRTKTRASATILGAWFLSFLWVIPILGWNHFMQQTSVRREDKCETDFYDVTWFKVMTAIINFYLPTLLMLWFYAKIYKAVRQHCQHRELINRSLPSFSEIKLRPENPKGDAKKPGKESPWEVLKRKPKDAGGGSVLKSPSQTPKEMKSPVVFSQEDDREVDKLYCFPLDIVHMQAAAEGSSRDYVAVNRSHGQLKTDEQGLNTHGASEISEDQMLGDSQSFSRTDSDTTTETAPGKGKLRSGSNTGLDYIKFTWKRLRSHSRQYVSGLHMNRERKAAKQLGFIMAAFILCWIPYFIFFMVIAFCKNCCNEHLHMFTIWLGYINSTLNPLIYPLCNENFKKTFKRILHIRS
Description: A. Preparation H1R Membranes
cDNA for the human histamine 1 receptor (H1R) was cloned into a mammalian expression vector containing the CMV promoter (pcDNA3.1 (+), Invitogen) and transfected into HEK293 cells using the FuGENE Tranfection Reagent (Roche Diagnostics Corporation). Transfected cells were selected using G418 (500 μ/ml). Colonies that survived selection were grown and tested for histamine binding to cells grown in 96-well dishes using a scintillation proximity assay (SPA) based radioligand binding assay. Briefly, cells, representing individual selected clones, were grown as confluent monolayers in 96-well dishes (Costar Clear Bottom Plates, #3632) by seeding wells with 25,000 cells and growing for 48 hours (37° C., 5% CO2). Growth media was removed and wells were rinsed two times with PBS (minus Ca^2+ or Mg^2+). For total binding, cells were assayed in a SPA reaction containing 50 mM Tris-HCL (assay buffer), pH 7.6, 1 mg wheat germ agglutinin SPA beads (Amersham Pharmacia Biotech, #RPNQ0001), and 0.8 nM ^3H-pyrilamine (Net-594, NEN) (total volume per well=200 μl). Astemizole (10 μM, Sigma #A6424) was added to appropriate wells to determine non-specific binding. Plates were covered with FasCal and incubated at room temperature for 120 minutes. […] Plates were counted in a Wallac Trilux 1450 Microbeta scintillation counter. […]

[4] = molecular target: T4, human histamine 2 receptor (Homo sapiens, UniProt P25021); assay: Competitive SPA binding assay, H2R, 3H-tiotidine; details: selectivity study Table 2, read-out: Ki (nM) H2
T4 construct: expressed in transfected cells; membranes
T4 sequence (P25021 whole entry): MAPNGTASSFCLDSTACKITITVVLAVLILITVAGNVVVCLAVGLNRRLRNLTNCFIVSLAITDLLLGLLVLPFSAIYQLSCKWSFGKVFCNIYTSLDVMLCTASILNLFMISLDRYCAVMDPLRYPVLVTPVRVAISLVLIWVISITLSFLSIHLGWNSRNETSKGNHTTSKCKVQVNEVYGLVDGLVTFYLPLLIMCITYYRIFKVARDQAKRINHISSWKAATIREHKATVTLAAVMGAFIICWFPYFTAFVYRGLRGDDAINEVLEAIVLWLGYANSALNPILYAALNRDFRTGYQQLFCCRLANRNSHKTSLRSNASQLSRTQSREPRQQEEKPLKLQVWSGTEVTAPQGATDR
Description: B. Preparation H2R Membranes
cDNA for the human histamine 2 receptor was cloned, expressed and transfected into HEK 293 cells as described above. Histamine binding to cells was assayed by SPA described above. For total binding, cells were assayed in a SPA reaction containing 50 mM Tris-HCl (assay buffer), pH 7.6, 1 mg wheat germ agglutinin SPA beads (Amersham Pharmacia Biotech, #RPNQ0001), and 6.2 nM ^3H-tiotidine (Net-688, NEN) (total volume per well=200 μl). Cimetidine (10 μM, Sigma #C4522) was added to appropriate wells to determine non-specific binding.
Several clones were selected as positive for binding, and a single clone (H2R10) was used to prepare membranes for binding studies. Five micrograms of protein was used per well in the SPA receptor-binding assay.
(§1) To investigate the selectivity of the antagonists for the histamine receptors, a competitive binding assay described above was performed. […] Until the present invention, most known H3R antagonists also bound H4R.

[5] = Rat pharmacokinetics, iv and po, LC/MS/MS; type: in vivo, Male Sprague Dawley Rats; details: 10 mg/kg po; for oral bioavailability (AUC 0-24 hr; po/iv ratio): 3 mg/kg iv; for half-life: male, Sprague Dawley, read-out: oral half-life (±SEM) (converted)
Description: Non-imidazole containing histamine H3 receptor antagonists disclosed in the literature generally have very poor pharmacokinetic properties (see J. Apelt, et al, J. Med. Chem. 2002,45,1128-1141). […] Male Sprague Dawley Rats (n=3 per dose arm) were separately dosed with 3 mg/kg iv or 10 mg/kg po of compound examples 131 and 271 (vehicle: 5% ethanol/water or water respectively; dose volume: 1 mL/kg iv, 10 mL/kg po). Approximately 0.5 mL of blood was collected in heparin collection tubes at multiple time points over an 8 or 24-hour period for examples 131 and 271 respectively, and the samples were analyzed using LC/MS/MS.

[6] = molecular target: T5, human GPRv53 receptor (H4R) (Homo sapiens, UniProt Q9H3N8); assay: Competitive binding assay, GPRv53 (H4R), [3H]histamine; details: for inhibition of binding to H4R compared to H3R: in words; for Ki: selectivity study Table 2
T5 construct: expressed in transfected cells; host or cells: HEK293 GPRv53 50 cells; homogenised whole-cell lysates
T5 sequence (Q9H3N8 whole entry): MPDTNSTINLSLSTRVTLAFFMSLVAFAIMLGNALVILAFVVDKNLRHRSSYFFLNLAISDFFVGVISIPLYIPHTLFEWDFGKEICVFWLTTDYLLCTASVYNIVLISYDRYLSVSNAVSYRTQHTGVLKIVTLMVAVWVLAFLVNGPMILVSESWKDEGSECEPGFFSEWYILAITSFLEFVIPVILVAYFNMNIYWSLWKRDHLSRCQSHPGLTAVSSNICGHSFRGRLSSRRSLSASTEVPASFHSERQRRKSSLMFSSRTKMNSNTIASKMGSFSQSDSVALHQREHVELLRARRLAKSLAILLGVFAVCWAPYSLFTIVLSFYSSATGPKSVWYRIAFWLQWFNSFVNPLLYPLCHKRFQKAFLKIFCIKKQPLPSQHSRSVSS
Description: D. Preparation of GPRv53 Membranes
cDNA for the human GPRv53 receptor was cloned and expressed as described in Example 1, above. Transfected cells were selected, tested for histamine binding, and selected. HEK293 GPRv53 50 cells were grown to confluency in DMEM/F12 (Gibco) supplemented with 5% FBS and 500 ug/ml G418 and washed with Delbecco's PBS (Gibco) and harvested by scraping. Whole cells were homogenized with a Polytron tissuemizer in binding buffer, 50 mM Tris pH 7.5. Cell lysates, 50 ug, were incubated in 96 well dishes with 3 nM (3H) Histamine and compounds in binding buffer for 2 hours at room temperature. Lysates were filtered through glass fiber filters (Perkin Elmer) with a Tomtec cell harverster. Filters were counted with melt-on scintillator sheets (Perkin Elmer) in a Wallac Trilux 1450 Microbeta Scintillation counter for 5 minutes.
as §1

Q: Which Ki [1] does the source give for `CCN(CC)CCCOc1ccc(C(C)N(C)CCN(C)C)cc1` (stereo not drawn) [Example 1] here?
A: 1.4 nM

Q: With `O=C(c1ccc(OCCN2CCCCC2)cc1)N1CCC[C@H]1CN1CCCC1` [Example 131] as the compound, how does the Ki ([2]; competitive binding, selectivity study Table 2, read-out: Ki (nM) H3R) read?
A: 1.05 nM

Q: And the Ki [3]?
A: ≥ 20000 nM

Q: And the Ki [4]?
A: ≥ 20000 nM

Q: What about the “oral bioavailability (AUC 0-24 hr; po/iv ratio)” value [5] of the same compound?
A: 58%

Q: And the half-life ([5]; blood)?
A: 10.4 ± 4.2 h

Q: And the “inhibition of binding to H4R compared to H3R” value [6]?
A: did not inhibit binding H4R

Q: What about the Ki [6] of the same compound?
A: ≥ 20000 nM

Q: Which Ki [2] does the source give for `CCN1CCc2cc(OCCCN3CCCCC3)ccc2C1.Cl.Cl` [Example 250, 2-Ethyl-6-(3-piperidin-1-yl-propoxy)-1,2,3,4-tetrahydro-isoquinoline dihydrochloride] here?
A: 0.37 nM

Q: What about the Ki [3] of the same compound?
A: 1020 nM

Q: And the Ki [4]?
A: 1110 nM

Q: And the “inhibition of binding to H4R compared to H3R” value [6]?
A: did not inhibit binding H4R

Q: And the Ki [6]?
A: ≥ 20000 nM

Q: What does the source list for `CCN1CCc2ccc(OCCCN3CCCCC3)cc2C1.Cl.Cl` [Example 271, 2-Ethyl-7-(3-Piperidin-1-yl-propoxy)-1,2,3,4-tetrahydro-isoquinoline dihydrochloride]?
A: oral bioavailability (AUC 0-24 hr; po/iv ratio) [5]: 69%; half-life ([5]; in vivo): 71.9 ± 3.3 h
